Test results published in the supplement of paper PMC10307832.

What was measured:
Experiment in all cases: relative viability (nuclei count vs DMSO), 5 days (fraction); higher = more cells survive
R406 + Palbociclib = compound: COc1cc(Nc2ncc(F)c(Nc3ccc4c(n3)NC(=O)C(C)(C)O4)n2)cc(OC)c1OC [R406] + CC(=O)c1c(C)c2cnc(Nc3ccc(N4CCNCC4)cn3)nc2n(C2CCCC2)c1=O [Palbociclib] (partner 0.5 µM)
Method in brief: (§1)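 A single step with final 0.05% Triton X-100, 1% formaldehyde and 1 ug/ml Hoechst fixed the cells and stained nuclei 5 days after treatment. Lung cancer cell lines in 1536-well plates had been treated by pin tool the day after seeding with one drug alone or a fixed anchor-drug dose plus five library-drug doses (not always all listed) in √10 steps, and nuclei were counted on 4× images. Relative viability is the ratio of nuclei in treated wells to nuclei in vehicle wells, taken as the median of duplicate plates.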

R406 + Navitoclax = compound: COc1cc(Nc2ncc(F)c(Nc3ccc4c(n3)NC(=O)C(C)(C)O4)n2)cc(OC)c1OC [R406] + CC1(C)CCC(c2ccc(Cl)cc2)=C(CN2CCN(c3ccc(C(=O)NS(=O)(=O)c4ccc(N[C@H](CCN5CCOCC5)CSc5ccccc5)c(S(=O)(=O)C(F)(F)F)c4)cc3)CC2)C1 [Navitoclax] (partner 0.5 µM)
Method in brief: as §1

Daporinad + Crizotinib = compound: O=C(/C=C/c1cccnc1)NCCCCC1CCN(C(=O)c2ccccc2)CC1 [Daporinad] + C[C@@H](Oc1cc(-c2cnn(C3CCNCC3)c2)cnc1N)c1c(Cl)ccc(F)c1Cl [Crizotinib] (partner 1 µM)
Method in brief: as §1

Daporinad + Linsitinib = compound: O=C(/C=C/c1cccnc1)NCCCCC1CCN(C(=O)c2ccccc2)CC1 [Daporinad] + C[C@]1(O)C[C@@H](c2nc(-c3ccc4ccc(-c5ccccc5)nc4c3)c3c(N)nccn32)C1 [Linsitinib] (partner 1 µM)
Method in brief: as §1

Cell Line	relative viability (R406 + Palbociclib; first compound 0.08 µM)	relative viability (R406 + Palbociclib; first compound 0.253 µM)	relative viability (R406 + Palbociclib; first compound 0.8 µM)	relative viability (R406 + Palbociclib; first compound 2.53 µM)	relative viability (R406 + Palbociclib; first compound 8 µM)	relative viability (R406 + Navitoclax; first compound 0.08 µM)	relative viability (R406 + Navitoclax; first compound 0.253 µM)	relative viability (R406 + Navitoclax; first compound 0.8 µM)	relative viability (R406 + Navitoclax; first compound 2.53 µM)	relative viability (R406 + Navitoclax; first compound 8 µM)	relative viability (Daporinad + Crizotinib; first compound 0.0005 µM)	relative viability (Daporinad + Crizotinib; first compound 0.001581 µM)	relative viability (Daporinad + Crizotinib; first compound 0.005 µM)	relative viability (Daporinad + Crizotinib; first compound 0.01581 µM)	relative viability (Daporinad + Linsitinib; first compound 0.0005 µM)	relative viability (Daporinad + Linsitinib; first compound 0.001581 µM)	relative viability (Daporinad + Linsitinib; first compound 0.005 µM)	relative viability (Daporinad + Linsitinib; first compound 0.01581 µM)
201T	0.375	0.399	0.349	0.394	0.285	1.16	1.15	1.17	1.19	1.18	0.954	1.05	1.04	1.03	0.998	0.973	1.04	1.02
A549						0.932	1.2	1.26	1.31	0.675	0.903	0.777	0.844	0.546	0.535	0.604	0.516	0.627
A-427	0.516	0.596	0.575	0.477	0.446	0.912	1.02	0.981	0.572	0.78	0.857	0.917	0.994	0.749	0.96	1.08	1.1	0.881
ABC-1	0.777	0.784	0.48	0.653	0.492						0.862	1.23	1.02	0.68	0.887	1.04	0.882	0.792
BEN	0.439	0.502	0.495	0.561	0.422	0.0867	0.0733	0.0583	0.0663	0.0726	0.849	0.879	0.91	1.1	0.923	0.938	0.951	1.22
CAL-12T	0.425	0.612	0.549	0.142	0.158	1.16	1.21	1.26	1.05	1.06	0.659	0.535	0.367	0.185	0.697	0.936	0.778	0.24
COR-L23	0.224	0.346	0.342	0.166	0.157	0.951	1.04	1.1	0.836	0.451	0.819	0.651	0.568	0.153	0.964	0.959	0.942	0.189
COR-L 105	0.374	0.386	0.39	0.316	0.33	0.858	0.755	1.02	0.805	0.558	0.763	0.722	0.723	0.798	0.927	1.07	0.842	1.08
Calu-6						0.798	0.809	0.949	0.579	0.316	0.902	0.846	0.797	0.514	0.841	1.03	0.926	0.821
ChaGo-K-1	0.768	0.98	1.02	0.928	0.706	0.969	1.16	1.01	0.947	0.44	1.15	1.18	0.896	0.379				
EBC-1						0.433	0.403	0.422	0.317	0.189	0.185	0.166	0.162	0.181	0.747	1.21	0.801	1.07
EKVX	0.362	0.417	0.373	0.333	0.315	0.814	1.03	0.932	0.77	0.521	0.891	1.01	1.01	0.993	1.04	1.09	0.913	1.18
EMC-BAC-2	0.518	0.538	0.508	0.44	0.378	1.11	1.38	1.31	1.12	0.917	0.743	0.763	0.527	0.247	0.904	0.797	0.802	0.339
EPLC-272H	0.329	0.337	0.326	0.246	0.303	1.03	1.18	1.21	0.63	0.589	0.884	1.03	1.01	1.11	1.11	1.32	1.31	1.4
H3255	0.295	0.331	0.336	0.358	0.284	0.488	0.731	0.541	0.312	0.14	0.782	0.937	0.853	0.864	0.913	0.951	1.03	1.13
HARA	0.334	0.198	0.223	0.264	0.132	1.05	1.14	1.12	1.19	0.453	1.05	1.07	1.07	0.291	0.949	0.937	1.03	0.188
